Experimental data: patent US20230263774A1, “OPTIMIZED SURGERY PROTOCOL AND KITS” (Steadman Philippon Research Institute, priority 2020, published 2023)
“Also recorded” adds a separate entry of the source.

Key:
[1] = system: human adipose-derived stem cells (ADSCs); experiment: Senescent cells in culture-expanded adipose-derived stem cells, staining for senescence-associated heterochromatin foci (H2AX, H3K9); format: cell-based
Excerpt: In preliminary experiments (FIG. 4), pre-existing senescent cells were found in cultured human adipose-derived stem cells (ADSCs). The ability of these cells to produce SASPs can induce significant damage to other stem cells or endogenous cells once re-administered into the intra-articular space. Thus, avoiding the proliferation of senescent cells from long-term expansion is critical to prevent these cells from compromising the ability of adult stem cells to repair cartilage. […] ADSCs from a young person (YF) and old person (OF) were cultured to passage 4 using normal proliferation media (DMEM/F-12, 10% FBS, 1% penicillin/streptomycin). The cells were subsequently treated with 50 μM of Fisetin for 24 hours and then cultured for 48 hours. Senescent cells were identified using antibodies for senescence-associated heterochromatin foci. […] These experiments support that Fisetin can eliminate senescent cells and SASPs in expanded stem cell populations, and this may apply to harvested tissues such as BMC from older OA patients that likely contain senescent cells (see FIGS. 2A-4, above).

Z24−/− mice = experiment: Senolytic treatment of progeroid Z24−/− mice, articular cartilage degeneration / OA; format: in vivo; conditions: for incidence/severity of age-related disorders including osteoarthritis (OA): progeroid mice accelerated aging model
Excerpt: The Zmpste24−/− (Z24−/−) model of Hutchinson-Gilford Progeria Syndrome (HGPS) was used to model not only HGPS musculoskeletal decline, but also as a pre-clinical aging model due to its predictable and accelerated aging phenotypes. Z24−/− animals are short lived (˜6 months) and have severe musculoskeletal abnormalities including weight loss, dystonia, sarcopenia, osteoporosis and as reported herein, early signs of bone loss and spontaneous osteoarthritis (OA).
As a proof of concept for the potential of senolytics to reduce AC degeneration, a pilot study was conducted with Dasatinib+Quercitin (D/Q; 5 mg/kg; 50 mg/kg). Z24−/− mice were administered D/Q via oral gavage as a single dose (D/Qsin) at 4 months of age, or monthly dose starting at 2 months of age (D/Qmul) prior to sacrifice at 5 months.

[2] = system: osteochondral defect in the patellar groove of New Zealand White rabbits; experiment: Rabbit osteochondral defect + bone marrow stimulation (BMS) with oral Fisetin, oral Losartan and/or BMAC; format: in vivo; conditions: for Microscopic evaluation and micro-CT: 12 weeks postoperatively, with or without BMAC, preliminary; for healing capacity of BMS-mediated osteochondral defects: compared with BMS alone, preliminary results
Protocol: Bone Marrow Collection and BMAC Processing for Autologous Transplant: New Zealand White rabbits were anesthetized to collect bone marrow aspirate (BMA) using an 18 G heparinized spinal needle through both iliac crests simultaneously by two surgeons for the purpose of preparing bone marrow aspirate concentrate (BMAC). Bone marrow samples were collected in 10 ml syringes containing ACD-A as an anticoagulant (˜1.5 ml of ACD-A per 10 ml sample), processed under sterile BSCs, and a benchtop centrifuge was used to prepare BMACs. Filters were also used for BMA prior to processing into BMACs. These procedures were performed under sterile conditions.
A 5 mm diameter osteochondral defect was created in the patellar groove of bilateral knees for 64 New Zealand White rabbits (128 knees). Under a sterile technique, a midline 3 cm incision was made in a knee flexed at approximately 30° and approached intra-articularly through a medial parapatellar incision. The patella was dislocated, and a 5 mm diameter osteochondral defect was created in the patellar groove (depth: 2 mm), followed by BMS. To allow bone marrow MSCs to be introduced into the defect space, five equally spaced holes of 2 mm depth were drilled into the subchondral bone using a 0.7 mm burr. […] Once the creation of the osteochondral defect and the BMS procedure was completed, the joint capsule was closed and 0.5 ml of BMAC was injected into the joint cavity of the left knee.
(§1) Post-surgical evaluations were to be conducted at two time points: 6 & 12 weeks. Autologous BMAC was injected into the unilateral knee joint cavity immediately after surgery, with no BMAC injection on the other side. Each rabbit was orally treated with Fisetin, Losartan, or a combination of the two biologics from the day after surgery until the day of euthanasia, for comparison with the untreated group. Rabbits were sacrificed 6 weeks or 12 weeks postoperatively. The experimental groups were as follows (N-8 per group): 1) OD+BMS; 2) OD+BMS+oral Fisetin; 3) OD+BMS+oral Losartan; 4) OD+BMS+oral Fisetin+oral Losartan; 5) OD+BMS+BMAC; 6) OD+BMS+BMAC+oral Fisetin; 7) OD+BMS+BMAC+oral Losartan; and 8) OD+BMS+[…].

[3] = system: Superoxide Dismutase 1 (SOD1); experiment: qPCR gene expression analysis of synovium harvested from the knee joint (rabbit OD + BMS study); format: in vivo, New Zealand White rabbits; conditions: Fisetin-treated group vs control group (p<0.01)
Protocol: as §1

[4] = system: PBMCs from fresh human peripheral blood; experiment: Fisetin treatment of isolated PBMCs, C12FDG / DRAQ7 flow cytometry; format: cell-based
Excerpt: A flow cytometry-based approach to assess senescent total PBMCs from fresh human peripheral blood was optimized. Cells were identified using FSC and SSC controls (FIG. 19A), while senescent cells, or C12FDG+ events, were identified with an emission of 514 nm (green channel).
To examine cellular phenotypes of C12FDG-stained cells, low, moderate, and high populations were sorted using FACS for two study participants (FIG. 20A). […] Using the same methodology, the rate and senolytic efficacy of Fisetin treatment were determined on PBMCs directly at 1, 4, 18, and 24 hr timepoints. […] Furthermore, the rate of senolytic activity of Fisetin was faster versus other known senotherapeutic drugs such as metformin, dasatinib, or quercetin (FIG. 21D).
Thus, it was next tested whether the reduction of highly senescent cells by Fisetin was associated with co-incident cell death. To this end, cells were co-stained with the viability stain DRAQ7.

[5] = system: senescent CD3+ T-Cells and plasma biomarkers; experiment: Single case: patient on Fisetin, senescent CD3+ T-Cells (C12FDG) and plasma biomarkers; format: in vivo, human; conditions: 150 days of Fisetin 100 mg/day
Protocol: Another flow cytometry-based approach was optimized to assess senescent total PBMCs and CD3+ T-Cells from fresh human peripheral blood. For this approach, T-Cells were isolated from PBMCs, washed, then stained with the senescence marker C12FDG for 1 hr, and then used for flow cytometry analysis. Cells were identified using FSC and SSC controls, while senescent cells, or C12FDG+ events, were identified with an emission of 514 nm (green channel).
Thus, it was tested whether Fisetin could reduce senescent T-Cells and plasma biomarkers for OP in a single patient enrolled in the study that disclosed Fisetin use between blood draws. […] This was commensurate with a reduction in OP markers OPG, OPN, and SOST in addition to the pro-inflammatory SASP marker TNF-α (FIG. 25B). […] In addition, in a single case study, C12FDG staining was sensitive enough to detect reductions in senescent T-Cells associated with reduction in OP and SASP biomarkers following Fisetin therapy.

[6] = system: bone marrow mesenchymal stem cells (BM-MSCs); experiment: Senescent cells in bone marrow mesenchymal stem cells after Fisetin, C12FDG flow cytometry; format: cell-based, human; conditions: 33 μM Fisetin 24 hours, passage 3
Protocol: Reduction in senescent cells in BMSCs after senolytic treatment: To determine a reduction in senescent cells in bone marrow stem cells after senolytic therapy, approximately 5 mL of bone marrow concentrate were obtained from a person. The BMC samples were immediately processed further to isolate the mononuclear layer and plated in a T25 flask to expand BM-MSCs. Bone marrow cells were pre-plated for 3-weeks in basal culture medium (CM) and passaged with CM+Fibroblast Growth Factor (FGF) to expand bone marrow mesenchymal stem cells (BM-MSCs). At passage 3, confluent BM-MSCs were treated with CM+FGF, 33 μM of DMSO, or 33 μM of Fisetin+GM+FGF for 24-hours in a 12-well plate. Then, […] of bafilomycin (inhibits lysosomal acidification) and […] of C12FDG (senescent label) were used to assess senescence via flow cytometry. In BM-MSCs at passage 3, the number of senescent in the Fisetin treated BM-MSCs was reduced by approximately 24% compared to the DMSO treated BM-MSCs, and approximately a 5% reduction of senescent cells was observed when compared to control BM-MSCs (FIG. 27).

[7] = system: osteochondral defect in the patellar groove of New Zealand White rabbits; experiment: Rabbit osteochondral defect model, microfracture plus oral Losartan; format: in vivo
Protocol: An osteochondral defect (diameter: 5 mm, depth: 2 mm) was made in the patellar groove of 48 New Zealand White rabbits. The rabbits were divided into 3 groups (8/group/time point): control (osteochondral defect only), microfracture (defect+microfracture), and Losartan (defect+microfracture+Losartan). For the Losartan group, a dose of 10 mg/kg/day of Losartan was orally administrated by mixing with the chew treat daily.

[8] = system: osteochondral defect in the patellar groove of New Zealand White rabbits; conditions: 6 weeks after surgery; Losartan 10 mg/kg/day oral; cited from earlier work

For O=c1c(O)c(-c2ccc(O)c(O)c2)oc2cc(O)ccc12 [Fisetin, 2-(3,4-dihydroxyphenyl)-3,7-dihydroxychromen-4-one], the “number of senescent cells in the expanded ADSCs in vitro” value ([1]; 50 μM Fisetin for 24 hours, then cultured 48 hours, passage 4 ADSCs from young and old female) was “significantly reduced”, the “-H2AX and H3K9 in Adipose Derived Stem Cells” value ([1]; FIG. 4, senescence quantified by H2AX and H3K9 staining) was “reduces” and the articular cartilage degeneration (Z24−/− mice; murine model of natural and accelerated (progeria) aging) was “delay”. The “incidence/severity of age-related disorders including osteoarthritis (OA)” value (“incidence/severity” for short) (Z24−/− mice) was “can reduce”, the “Macroscopic assessment, gross images compared to the control group” value ([2]; 6 weeks postoperatively, control = BMS, without medication, without BMAC) was “significant improvement” and the “Microscopic evaluation and micro-CT” value [2] was “trend toward improvement”. For the same compound, the “healing capacity of BMS-mediated osteochondral defects” value [2] was “enhanced”, the “expression level of Superoxide Dismutase 1 (SOD1) in the synovium” value [3] was “significantly higher” and the “time of maximum reduction of high senescent cells” value ([4]; Fisetin on PBMCs directly) was 4 h. For the same compound, the “time to significant reduction of high senescent cells” value ([4]; Fisetin on PBMCs directly) was ≤ 1 h, the “high senescent cell counts and percent senescent cells” value ([4]; Fisetin on PBMCs directly, timepoints 1, 4, 18, 24 hr) was “significantly reduced” and the “DRAQ7+ cells (cell death) with decrease in highly senescent cells” value ([4]; co-stained with viability stain DRAQ7, 1 and 4 hrs) was “concomitant increases”. For the same compound, the “effect on highly senescent cells vs moderately senescent cells” value ([4]; isolated PBMCs (FIG. 22D)) was “primarily affect only highly senescent cells and not moderately senescent cells; also recorded: selectively kills highly senescent cells”, the “rate of senolytic activity” value ([4]; versus metformin, dasatinib, or quercetin (FIG. 21D)) was “faster” and the “levels of moderately and highly senescent CD3+ T-Cells” value [5] was “reduces”. The “OP marker OPG in plasma” value ([5]; pre- vs. post-Fisetin) was “reduction”, the “OP marker OPN in plasma” value ([5]; pre- vs. post-Fisetin) was “reduction” and the “OP marker SOST in plasma” value ([5]; pre- vs. post-Fisetin) was “reduction”. For the same compound, the “pro-inflammatory SASP marker TNF-α in plasma” value ([5]; pre- vs. post-Fisetin) was “reduction”, the “reduction of number of senescent cells in BM-MSCs” value ([6]; compared to DMSO treated BM-MSCs) was “approximately 24%” and the “reduction of senescent cells in BM-MSCs” value ([6]; compared to control BM-MSCs (CM+FGF)) was “approximately 5%”.

In the case of O=c1c(O)c(-c2ccc(O)c(O)c2)oc2cc(O)cc(O)c12 [Quercetin], the “incidence/severity” value (Z24−/− mice) is reported as “can reduce”.

For CO[C@H]1/C=C\C=C(/C)C(=O)NC2=CC(=O)C(NCCN(C)C)=C(C[C@@H](C)C[C@H](OC)[C@H](O)[C@@H](C)/C=C(\C)[C@@H]1OC(N)=O)C2=O [Alvespimycin], the “incidence/severity” value (Z24−/− mice) was “can reduce”.

For CCCCc1nc(Cl)c(CO)n1Cc1ccc(-c2ccccc2-c2nn[nH]n2)cc1 [Losartan], the ICRS macroscopic score ([7]; 12 weeks, Losartan 10 mg/kg/day oral + microfracture) was 11.7±0.5, the “modified O'Driscoll score (based on Safranin O staining) compared to the other 2 groups” value ([7]; Losartan 10 mg/kg/day oral + microfracture) was “significantly higher” and the “Immunohistochemistry staining of cartilage (Col2)” value ([7]; Losartan treatment group) was “nearly normal structure with hyaline-like column-arranged chondrocytes”. The “Microscopic evaluation and micro-CT” value [2] was “trend toward improvement”, the “healing capacity of BMS-mediated osteochondral defects” value [2] was “enhanced” and the “articular cartilage repair compared to microfracture or control groups” value [8] was “significantly improved”.
